Take `CC(C)(C)OC(=O)NC(CC(=O)O)c1ccc(Cl)c(Cl)c1` (stereo not given): the melting point – broadly, the temperature, or range, at which the solid turns liquid – was determined as 128 °C.

`O=C(CCCl)Nc1ccc2[nH]ncc2c1` had a melting point of 158 to 160 °C.

In turn, `c1ccc2nc(COc3cccc4cccnc34)ccc2c1` yielded a melting point of 95 to 96 °C.

In turn, `CCCCCc1ccc(-c2ncc([C@H]3CC[C@H](CCC)CC3)cn2)cc1` displayed a melting point of 93.5 °C.

In the case of `CCC(C)C(NC(=O)OC)C(=O)NN(Cc1ccc(-c2nccs2)cc1)CC(O)C(Cc1ccccc1)NC(=O)C(NC(=O)OC)C(C)C` (stereo not given), the melting point fell in the range of 227 to 229 °C.

On to `OC(Cn1ccnc1)C12CC3CC(CC(C3)C1)C2` (stereo not given), for which the melting point fell in the range of 226 to 228 °C.

The compound `CC(C)(O)c1c(F)ccc(-c2ccc3nc(-c4ccc(Cl)cc4)cn3c2)c1F` gave a melting point of 191 to 192 °C.

In turn, `C[C@H](C(=O)O)c1ccc2cc(OCCCCCCc3ccc(O)c(O)c3)ccc2c1` had a melting point of 103 to 106 °C.

Turning to `CS(=O)(=O)Nc1ccc(NC(=O)C(=O)N2CCC(Cc3ccc(F)cc3)CC2)cc1`, the melting point is 178 to 182 °C.

Consider `C[C@@H]([C@@H](O)c1ccc(OCc2ccccc2)cc1)N1CCC(O)(c2ccccc2)CC1`, for which the melting point is 158 to 161 °C.

For `CCOC(=O)c1oc(C)c(O)c1O`, the melting point fell in the range of 120 to 121 °C.

`COC(=O)c1ccc(N=Cc2cccc(F)c2)cn1` displayed a melting point of 111 to 114 °C.

For `Cc1cn2cc(Cl)cc(Cl)c2n1`, the melting point lay within 156 to 158 °C.

Consider `O=C(O)C1CN(c2ccc(-c3noc(CCl)n3)cc2)C(=O)O1` (stereo not given), for which the melting point lay in the range of 178 to 181 °C.

`CC1=C(c2ccc(OCC(=O)O)c(Cl)c2Cl)CCCC1=O` came in with a melting point of 143 to 145 °C.

`CC(C)(C)c1nc(C=O)nc(C(C)(C)C)c1O`: the melting point was 187 to 189 °C.

With `COc1cc(Nc2c(C#N)cnc3cc(-c4cccc(C=O)c4)sc23)c(Cl)cc1Cl`, the melting point is 262 to 263 °C.

In turn, `CC(c1oc2ccccc2c(=O)c1-c1ccccc1)n1nc(-c2cn[nH]c2)c2c(N)ncnc21` (stereo not given) returned a melting point of 214 to 217 °C.

As to `c1ccc(Oc2ccc(OCCCn3ccnc3)cc2)cc1`, the melting point is 54.5 to 55.5 °C.

In turn, `O=c1[nH]nc2c3c(cccc13)N=C(CN1CCCN(S(=O)(=O)c3ccccc3)CC1)N2` yielded a melting point of 265 to 268 °C.

`COc1ccc(C2CNCc3c(C)cccc32)cc1OC` (stereo not given): the melting point lay within 86 to 88 °C.

Regarding `O=C1N(Cc2ccc(NC3CCNC3)cc2)c2ccccc2C12COc1cc3c(cc12)OCO3` (stereo not given), the melting point lay within 118 to 121 °C.

The compound `CCOc1ccc(C(=O)c2csc(-c3ccc(OCC)c(OCC)c3)n2)cc1OCC` registered a melting point of 128 to 129 °C.

Regarding `CN(CCO)c1nccc(NC(N)=NCC(F)(F)F)n1`, the melting point lay in the range of 158 to 160 °C.

For `Cc1noc(NS(=O)(=O)c2ccc(Cl)c(Cl)c2Cl)c1Br`, the melting point was in the range of 110 to 113 °C.

The compound `Cc1ccc(S(=O)(=O)N=c2ccc(C)cn2-c2cccc(C(F)(F)F)c2)cc1` came in with a melting point of 174 °C.

As for `c1ccc2c(c1)C1(CO1)c1ccccc1C21CO1` (stereo not given), the melting point fell in the range of 119 to 121 °C.

`CC(C(=O)c1ccccc1)N1CCN(c2nc3nccc(-c4ccncc4)n3n2)CC1` (stereo not given) registered a melting point of 142 to 144 °C.

For the compound `CCOC(=O)c1ccc(/C=C(\C)c2ccc3c(c2)C(C)(C)CCCC3)cc1`, the melting point lay in the range of 69 to 70 °C.

In the case of `Nc1ccc(C(c2ccc(N)cc2)(c2ccc(I)cc2)C(F)(F)F)cc1`, the melting point was 171 to 172 °C.

`COc1cc(C=C2SC(=S)N(c3ccc(O)cc3)C2=O)ccc1OC1OC(CO)C(O)C(O)C1NC(C)=O` (stereo not given) registered a melting point of 234 to 236 °C.

Consider `O=C1CCCC(=O)N1CCCn1c2ccccc2c2nc3ccccc3nc21`, for which the melting point was 312 to 314 °C.

As to `C#CCn1c(-c2cc(Cl)nc(Cl)c2)nc(O)c(CC)c1=O`, the melting point lay in the range of 200 to 202 °C.

`C#CCOc1ccc2c(C(=O)OCC)cc(=O)oc2c1` displayed a melting point of 230 °C.

Compound `Nc1ccc(-n2ccn(-c3ccc(OCC(F)(F)C(F)F)cc3)c2=O)cc1` had a melting point of 178 to 179 °C.

In turn, `O=C(c1ccc(F)cc1)C1CCN(CCCCn2c(=O)[nH]c3cscc3c2=O)CC1` displayed a melting point of 190 to 192 °C.

On to `O=Cc1ccc(CC(=O)OCc2ccccc2)cc1`, for which the melting point fell in the range of 54 to 55 °C.

Turning to `Fc1ccccc1Cn1nc(-c2nc(C(F)(F)F)cc(C(F)(F)F)n2)c2cccnc21`, the melting point came out at 109 °C.

In the case of `CCCCCC[C@H](C)Oc1ccc(-c2ccc(O)c([N+](=O)[O-])c2)cc1`, the melting point amounted to 40 °C.

`CC(C)c1cn2ccccc2c1S(=O)(=O)c1ccc(OCCCN(C)C)cc1`: the melting point lay within 90 to 92 °C.

`O=C(OCCOc1ccc2ncnn2n1)C1CN(C(c2ccccc2)c2ccccc2)CCN1` (stereo not given) yielded a melting point of 157 to 159 °C.

The compound `COC(=O)C(Oc1nc(C)cc(OC)n1)C(OCC(C)(C)C(=O)OC)(c1ccccc1)c1ccccc1` (stereo not given) yielded a melting point of 143 °C.

Consider `COC(=O)c1cn(-c2ccc(OC(C)=O)cc2C)c(C=O)cc1=O`, for which the melting point lay in the range of 216 to 217 °C.

As for `CC=C1CCC2C3=CC=C4CC(O[Si](C)(C)C(C)(C)C(C)C)CCC4(C)C3CCC12C` (stereo not given), the melting point was in the range of 94 to 97 °C.

`CC(C)C1=C(C#N)C(c2ccccc2Br)c2c(n[nH]c2CC#N)N1` (stereo not given) returned a melting point of more than 250 °C.

On to `Clc1cccc(Nc2ncnc(-c3ccnc(Cl)c3)n2)c1`, for which the melting point was in the range of 178 to 180 °C.

For the compound `CCN(c1cccc(Cl)c1)C(C(=O)O)c1c(Cl)cccc1Cl` (stereo not given), the melting point came out at 120 °C.

`CC(C)=CCC/C(C)=C/CSc1nc2cc(Cl)ccc2[nH]1`: the melting point lay in the range of 102 to 104 °C.

In the case of `Cc1ccc(-c2nc(O)cc(O)n2)cc1`, the melting point turned out to be 314 °C.

Take `COc1ccc(C(=C/C=C/C(=O)Nc2ccc(Cc3cccnc3)cc2)c2ccc(OC)cc2)cc1`: the melting point is 185 to 186 °C.

Compound `O=CC(=Cc1ccccc1OCc1ccc(Br)cc1)C(C=O)=Cc1ccccc1OCc1ccc(Br)cc1` registered a melting point of 210 to 211 °C.

`COC(=O)c1cn(-c2ccccc2Oc2ccc(C)cc2O)nn1` came in with a melting point of 153 to 155 °C.

`Cc1nc(Sc2ccc([N+](=O)[O-])cc2)nc(C)c1Cl` returned a melting point of 110 °C.

Take `CC(C)(C)NC(=O)[C@@H]1CCCN1C(=O)[C@@H](O)[C@@H](C(=O)[C@H](CC(N)=O)NCc1cnc2ccccc2n1)C(N)c1ccccc1` (stereo not given in full): the melting point is 116 to 119 °C.

Take `Cc1c(-c2ccccc2)ncc2c(N3CCOC(C)C3)nnc(N3CCOC(C)C3)c12` (stereo not given): the melting point lay within 96 to 99 °C.

Compound `CN(CCc1ccc(NS(C)(=O)=O)cc1)Cc1cc2cc(NS(C)(=O)=O)ccc2o1` returned a melting point of 177 to 179 °C.

In turn, `COc1ccccc1NC(=O)[C@@H]1Cc2[nH]cnc2CN1C(C)=O` registered a melting point of 159 °C.

For the compound `CCCCCCCc1cc2cc(C(=O)OCC)ccc2[nH]1`, the melting point is 66 to 69 °C.

Turning to `CC[C@@H](c1ccc(F)cc1)N(Cc1ccc(C(=O)OC)cc1)S(=O)(=O)c1ccc(Cl)cc1`, the melting point fell in the range of 73 to 75 °C.

Turning to `Cc1oc2cc3sc4ccccc4c3c(-c3cc(I)c(O[C@H](C)C(=O)O)c(I)c3)c2c1C`, the melting point lay within 218 to 219 °C.

In turn, `CC(C)(C)CC(C)(C)c1cc(Cc2cc(C(C)(C)CC(C)(C)C)cc(C(C)(C)CC(C)(C)C)c2O)c(O)c(-n2nc3ccccc3n2)c1` gave a melting point of 174 °C.

Consider `CC1(C)C=C(N2Cc3ccccc3C2=O)c2cc(S(=O)(=O)C(F)(F)F)ccc2O1`, for which the melting point fell in the range of 110 to 115 °C.

Consider `CCCc1nc(C(C)(C)O)c(C(=O)OCC)n1Cc1ccc(-c2ccccc2C(=O)NC(C)(C)C)cc1`, for which the melting point was in the range of 145 to 146 °C.

In turn, `C=CC(=O)NC(=O)NCCCl` came in with a melting point of 156 to 158 °C.

For `CN1CC23CC(c4ccccc4C2C1=O)c1ccccc13` (stereo not given), the melting point was in the range of 141 to 146 °C.

`COCOc1ccc(Cl)cc1-c1cc(-c2cccc(N)c2)c(C#N)c(NC(=O)c2ccccc2)n1` displayed a melting point of 174 to 175 °C.

`O=C1CCC(=O)N1CCCCCNC(=O)n1cc(F)c(=O)[nH]c1=O`: the melting point was determined as 142 °C.

Regarding `C=CCNC(=O)C1CCc2cc(Oc3ccccc3)ccc2O1` (stereo not given), the melting point lay in the range of 104 to 106 °C.

On to `CC(O)c1cc(Br)c(N)c(CN(C)C)c1` (stereo not given), for which the melting point fell in the range of 69 to 72 °C.

With `CCn1cc(C(=O)O)c(=O)c2cc(F)c(N3CC4CCCC3CN4C)c(F)c21` (stereo not given), the melting point was more than 300 °C.

In the case of `CC(C)(O)COc1c(-c2ccc(S(C)(=O)=O)cc2)cnn(-c2ccc(F)cc2)c1=O`, the melting point lay in the range of 152 to 154 °C.

`COc1cccc2c(CCN(C3CCC3)C3COc4c(F)ccc(C(N)=O)c4C3)coc12` (stereo not given): the melting point was in the range of 135 to 145 °C.

On to `CC(C(=O)Nc1ccc2[nH]c(=O)oc2c1)N1CCC(Cc2ccccc2)CC1` (stereo not given), for which the melting point was 116 to 118 °C.

Regarding `O=C(CSc1nc2ccccc2s1)c1ccc2[nH]c3ncc(Cl)cc3c2c1`, the melting point fell in the range of 241 to 242 °C.

For `Cc1ccccc1-n1ccc2nnc3c(C)cccc3c21`, the melting point fell in the range of 105 to 106 °C.

`CCCCN(Cc1ccc(-c2ccccc2-c2nnnn2C(c2ccccc2)(c2ccccc2)c2ccccc2)cc1)c1nc(C)cc(C)n1` registered a melting point of 131 to 133 °C.

`COc1ccc(-c2[nH]nc3c2C(=O)c2c(NC(=O)Cc4ccc(N=[N+]=[N-])cc4)cccc2-3)cc1` displayed a melting point of more than 300 °C.

As for `CCCCOC1OC(CO)C(O)C(O)C1(O)N(Cc1cccc(C)c1C)C(=O)N(CCCl)N=O` (stereo not given), the melting point is 90 to 92 °C.

`CC(C)NC(=O)C(Cl)Cl` had a melting point of 45 to 48 °C.

As for `O=C(NCc1ccc(Cl)cc1)c1cnc2sc(CN3CCOCC3)cc2c1O`, the melting point is 193 to 195 °C.

`NN=C1c2ccccc2-c2ccc(Cl)cc21`: the melting point was in the range of 139 to 143 °C.

`N#Cc1c[nH]c2c(C(=O)O)cccc12`: the melting point came out at 318 °C.

With `COc1cc2ncc(C#N)c(Nc3ccc(F)c(Cl)c3)c2cc1NC(=O)CC(CN1CCC(O)C1)N1CCC(O)C1` (stereo not given), the melting point was in the range of 139 to 143 °C.

Take `COc1ccc(Cl)cc1-c1c(CCO)c(=O)[nH]c2ccc(C(F)(F)F)cc12`: the melting point is 216 to 217 °C.

`Nc1ncnc2nsnc12` showed a melting point of 247 to 249 °C.

(Values after a melting point compilation (Tetko et al.; mined from patent text by program, amines drawn as free bases though some values may be those of a salt).)
